Tests used:
[1] = Cytotoxicity against HIV-2 ROD mock-infected human MT4 cells assessed as reduction in cell viability by MTT assay; type: cell-based; conditions: HIV-2 ROD mock-infected MT4 cells
[2] = Selectivity ratio of CC50 for HIV-2 ROD mock-infected human MT4 cells to EC50 for HIV-2 ROD infected in human MT4 cells; type: ADME, cell-based; conditions: read-out: Ratio CC50/EC50
[3] = tested on: Human immunodeficiency virus 1; assay: Antiviral activity against HIV-1 3B infected in human MT4 cells assessed as inhibition of virus-induced cytopathicity by MTT assay; type: functional, organism-based; conditions: Human immunodeficiency virus 1, 3B
[4] = tested on: Human immunodeficiency virus 2; assay: Antiviral activity against HIV-2 ROD infected in human MT4 cells assessed as inhibition of virus-induced cytopathicity by MTT assay; type: functional, organism-based; conditions: Human immunodeficiency virus 2, ISOLATE ROD
[5] = Cytotoxicity against HIV-1 3B mock-infected human MT4 cells assessed as reduction in cell viability by MTT assay; type: cell-based; conditions: HIV-1 3B mock-infected MT4 cells
[6] = Selectivity ratio of CC50 for HIV-1 3B mock-infected human MT4 cells to EC50 for HIV-1 3B infected in human MT4 cells; type: ADME, cell-based; conditions: read-out: Ratio CC50/EC50
[7] = target: Human immunodeficiency virus type 1 reverse transcriptase (Human immunodeficiency virus 1, UniProt Q72547); assay: Inhibition of purified recombinant HIV-1 reverse transcriptase assessed as inhibition of biotin-dUTP incorporation using poly(rC)-oligo(dG) as template primer

Structure (SMILES)	CC50 [1] [µM]	selectivity ratio [2]	EC50 [3] [µM]	EC50 [4] [µM]	CC50 [5] [µM]	selectivity ratio [6]	IC50 [7] [µM]
O=C(CSc1nnccc1-c1cccc2ccccc12)c1ccc(Cl)cc1Cl	55	< 1	5.46	> 55	54.6	10	
O=C(CSc1nnccc1-c1cccc2ccccc12)Nc1ccccc1	174	< 1	1.93	> 174	203	105	
O=C(CSc1nnccc1-c1cccc2ccccc12)Nc1ccccc1Cl	35	< 1	0.19	> 35	34.2	177	
O=C(CSc1nnccc1-c1cccc2ccccc12)Nc1ccc(Cl)cc1Cl	232	< 1	0.42	> 232	> 284	> 684	
O=C(CSc1nnccc1-c1cccc2ccccc12)Nc1ccccc1F	241	< 1	0.26	> 241	204	799	
O=C(CSc1nnccc1-c1cccc2ccccc12)Nc1ccccc1Br	31.3	< 1	0.21	> 31.3	31.5	151	
Cc1ccc(NC(=O)CSc2nnccc2-c2cccc3ccccc23)c(Br)c1	215	< 1	0.2	> 215	182	929	
CC(=O)c1ccc(NC(=O)CSc2nnccc2-c2cccc3ccccc23)c(Br)c1	48.5	< 1	0.13	> 48.5	46.3	370	
COC(=O)c1ccc(NC(=O)CSc2nnccc2-c2cccc3ccccc23)c(Br)c1	> 246	< 1	0.14	> 246	159	1110	
CCOC(=O)c1ccc(NC(=O)CSc2nnccc2-c2cccc3ccccc23)c(Br)c1	> 239	< 1	0.56	> 239	237	420	
Cc1ccc(NC(=O)CSc2nnccc2-c2cccc3ccccc23)c([N+](=O)[O-])c1	244	< 1	0.14	> 244	204	1440	
O=C(CSc1nnccc1-c1cccc2ccccc12)Nc1ccccc1[N+](=O)[O-]	135	< 1	0.046	> 135	99.9	2150	4.06
Cc1ccccc1NC(=O)CSc1nnccc1-c1cccc2ccccc12	150	< 1	1.09	> 150	142	130	
O=C(CSc1nnccc1-c1cccc2ccccc12)Nc1cccnc1Cl	164	< 1	0.27	> 164	156	573	
O=C(CSc1nnccc1-c1cccc2ccccc12)N1CCCc2ccccc21	35	< 1	> 34.5	> 35	34.5	< 1	
O=C(CSc1nnccc1-c1cccc2ccccc12)N1CCc2ccccc2C1	36.5	< 1	1.15	> 36.5	34	29	
CC(C)Nc1cccnc1N1CCN(C(=O)c2cc3cc(NS(C)(=O)=O)ccc3[nH]2)CC1 [DELAVIRDINE]	> 36.2				> 36.2	> 1100	
O=C1Nc2ccc(Cl)cc2[C@@](C#CC2CC2)(C(F)(F)F)O1 [EFAVIRENZ]	> 6.34				> 6.34	> 1190	
Cc1ccnc2c1NC(=O)c1cccnc1N2C1CC1 [NEVIRAPINE]	> 15				> 15		
Nc1ccn([C@H]2CC[C@@H](CO)O2)c(=O)n1 [ZALCITABINE]	> 94.7	> 74		1.28	> 94.7	> 93	
Cc1cn([C@H]2C[C@H](N=[N+]=[N-])[C@@H](CO)O2)c(=O)[nH]c1=O [ZIDOVUDINE]		56900	0.021	0.0045		12200	

Reference: ChEMBL document CHEMBL3132824, “Discovery of novel pyridazinylthioacetamides as potent HIV-1 NNRTIs using a structure-based bioisosterism approach” (Medchemcomm, 2013)
